IC50 data for 30 compounds are collected here from patent publication US20250346602A1, “LACTAM SUBSTITUTED IMIDAZOPYRIDAZINE IL-17A MODULATORS AND USES THEREOF” (DICE ALPHA, INC., priority 2022, published 2025).

Some results are limits rather than exact numbers.

The target in the assay is T1, IL-17A/A (Homo sapiens, UniProt Q16552).
T1 construct: purchased Genscript Z03228
T1 sequence (Q16552 24-155): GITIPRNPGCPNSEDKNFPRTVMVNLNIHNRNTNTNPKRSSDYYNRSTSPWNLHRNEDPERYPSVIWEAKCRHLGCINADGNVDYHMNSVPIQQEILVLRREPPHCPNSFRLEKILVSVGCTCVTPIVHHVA
Briefly: IL-17A/A HEK-Blue cell assay. Conditions: HEK-Blue IL-17A reporter cell line (HEK 293), IL-17A/A stimulation, 20 hours incubation, SEAP read at A630. Format: cell-based. The essentials:
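HEK293 reporter cells expressing IL-17RA, IL-17RC and Act1 were given titrated compound (top final 10, 1 or 0.3 uM; 0.1% DMSO) right before IL-17A/A and incubated 20 hours. NFκB-driven SEAP in the media was read at A630 with Quanti-Blue, and IC50 came from a 4-parameter nonlinear fit.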
As for `CCc1nonc1C(=O)N[C@H](c1cn2nc(CC3C[C@@H](C(F)(F)F)CNC3=O)ccc2n1)[C@H]1CC[C@H](C)CC1` (stereo partly drawn) [Compound 141, 4-Ethyl-N-((1S)-((1R.4S)-4-methylcyclohexyl)(6-(((5R)-2-oxo-5-(trifluoromethyl)piperidin-3-yl)methyl)imidazo[1,2-b]pyridazin-2-yl)methyl)-1,2,5-oxadiazole-3-carboxamide], the IC50 (commonly the concentration needed to halve the response being measured) was under 100 nM.

Turning to `CCn1nccc1C(=O)NC(c1cn2nc(CC3CC(F)(F)CNC3=O)ccc2n1)C1CCCC(F)(F)C1` (mixture of isomers) [Compound 32, N-((6-((5,5-difluoro-2-oxopiperidin-3-yl)methyl)imidazo[1,2-b]pyridazin-2-yl)(3,3-difluorocyclohexyl)methyl)-1-ethyl-1H-pyrazole-5-carboxamide], the IC50 was in the range of 100 to 1000 nM.

In the case of `CCn1nccc1C(=O)N[C@H](c1cn2nc(CC3CCC(C(F)(F)F)NC3=O)ccc2n1)C(C1CC1)C1CC1` (single isomer, unassigned) [Compound 43], the IC50 is over 1000 nM.

Regarding `CCn1nccc1C(=O)N[C@H](c1cn2nc(CC3C(=O)NCCC3C)ccc2n1)[C@H]1CC[C@H](C)CC1` (single isomer, unassigned) [Compound 53], the concentration for half-maximal inhibition (IC50) lay within 100 to 1000 nM.

For the compound `O=C(N[C@H](c1cn2nc(CC3C[C@@H](C(F)(F)F)CNC3=O)ccc2n1)C1CCC(F)(F)CC1)c1ccnn1CC(F)F` (stereo partly drawn) [Compound 106, N-((1S)-(4,4-difluorocyclohexyl)(6-(((5R)-2-oxo-5-(trifluoromethyl)piperidin-3-yl)methyl)imidazo[1,2-b]pyridazin-2-yl)methyl)-1-(2,2-difluoroethyl)-1H-pyrazole-5-carboxamide], the IC50 lay in the range of 100 to 1000 nM.

`CCn1nccc1C(=O)N[C@H](c1cn2nc(CC3C[C@@H](C(F)(F)F)CNC3=O)c(Cl)cc2n1)C1CCC(F)(F)CC1` (single isomer, unassigned) [Compound 80]: the IC50 is 100 to 1000 nM.

On to `CCn1nccc1C(=O)N[C@H](c1cn2nc(CC3C(=O)NCCC3C)ccc2n1)[C@H]1CC[C@H](C)CC1` (single isomer, unassigned) [Compound 52], for which the IC50 was over 1000 nM.

With `O=C(N[C@H](c1cn2nc(CC3C[C@@H](C(F)(F)F)CNC3=O)ccc2n1)C1CCC(F)(F)CC1)c1nonc1C1CC1` (stereo partly drawn) [Compound 104, 4-cyclopropyl-N-((1S)-(4,4-difluorocyclohexyl)(6-(((5R)-2-oxo-5-(trifluoromethyl)piperidin-3-yl)methyl)imidazo[1,2-b]pyridazin-2-yl)methyl)-1,2,5-oxadiazole-3-carboxamide], the IC50 is under 100 nM.

In the case of `CC(C)n1nccc1C(=O)N[C@H](c1cn2nc(CC3C[C@H](C(F)(F)F)CNC3=O)ccc2n1)[C@@H]1CCCC(F)(F)C1` (stereo partly drawn) [Compound 160, N-((1S)—((R)-3,3-difluorocyclohexyl)(6-(((5S)-2-oxo-5-(trifluoromethyl)piperidin-3-yl)methyl)imidazo[1,2-b]pyridazin-2-yl)methyl)-1-isopropyl-1H-pyrazole-5-carboxamide], the IC50 is under 100 nM.

For the compound `CCn1nccc1C(=O)NC(c1cn2nc(CC3CC(C)CNC3=O)ccc2n1)C1CCC(C)CC1` (single isomer, unassigned) [Compound 51], the IC50 lay in the range of 100 to 1000 nM.

Turning to `Cc1nocc1C(=O)N[C@H](c1cn2nc(CC3C[C@@H](C(F)(F)F)CNC3=O)ccc2n1)C1CCC(F)(F)CC1` (stereo partly drawn) [Compound 118, N-((1S)-(4,4-difluorocyclohexyl)(6-(((5R)-2-oxo-5-(trifluoromethyl)piperidin-3-yl)methyl)imidazo[1,2-b]pyridazin-2-yl)methyl)-3-methylisoxazole-4-carboxamide], the IC50 fell in the range of 100 to 1000 nM.

Regarding `CC(C)n1nccc1C(=O)N[C@H](c1cn2nc(CC3C[C@@H](C(F)(F)F)CNC3=O)ccc2n1)[C@@H]1CCCC(F)(F)C1` (stereo partly drawn) [Compound 149, N-((1S)—((R)-3,3-difluorocyclohexyl)(6-(((5R)-2-oxo-5-(trifluoromethyl)piperidin-3-yl)methyl)imidazo[1,2-b]pyridazin-2-yl)methyl)-1-isopropyl-1H-pyrazole-5-carboxamide], the IC50 is under 100 nM.

Consider `CCn1nccc1C(=O)N[C@H](c1cn2nc(CC3C[C@@H](C(F)(F)F)CNC3=O)c(N(C)C3CCOCC3)cc2n1)C1CCC(F)(F)CC1` (single isomer, unassigned) [Compound 94], for which the half-maximal inhibitory concentration (IC50) was under 100 nM.

Take `Cc1nonc1C(=O)N[C@H](c1cn2nc(C[C@H]3C[C@@H](C(F)(F)F)NC3=O)ccc2n1)C(C1CC1)C1CC1` [Compound 21, N—((S)-2,2-dicyclopropyl-1-(6-(((3R,5S)-2-oxo-5-(trifluoromethyl)pyrrolidin-3-yl)methyl)imidazo[1,2-b]pyridazin-2-yl)ethyl)-4-methyl-1,2,5-oxadiazole-3-carboxamide]: the IC50 is over 1000 nM.

For the compound `CCn1nccc1C(=O)N[C@@H](c1cn2nc(CC3C[C@@H](C(F)(F)F)CNC3=O)ccc2n1)[C@@H]1C[C@H]2C[C@H]2C1` (stereo partly drawn) [Compound 171, N-((1R)-((1R,3S,5S)-bicyclo[3.1.0]hexan-3-yl)(6-(((5R)-2-oxo-5-(trifluoromethyl)piperidin-3-yl)methyl)imidazo[1,2-b]pyridazin-2-yl)methyl)-1-ethyl-1H-pyrazole-5-carboxamide], the IC50 was 100 to 1000 nM.

Take `CC[C@@H](c1ccc(F)cc1)[C@H](NC(=O)c1ccnn1CC)c1cn2ncc(CC3C[C@@H](C(F)(F)F)NC3=O)cc2n1` (single isomer, unassigned) [Compound 218]: the IC50 was under 100 nM.

In the case of `CCn1nccc1C(=O)N[C@H](c1cn2nc(CC3CC(CC(F)(F)F)CNC3=O)ccc2n1)C1CCC(F)(F)CC1` (single isomer, unassigned) [Compound 66], the IC50 is 100 to 1000 nM.

Take `O=C(N[C@H](c1cn2nc(CC3C[C@@H](C(F)(F)F)CNC3=O)ccc2n1)C1CCC(F)(F)CC1)c1conc1C1CC1(F)F` (single isomer, unassigned) [Compound 126]: the half-maximal inhibitory concentration (IC50) is under 100 nM.

`CCn1nccc1C(=O)N[C@H](c1cn2nc(CC3CC(C(F)(F)F)CNC3=O)ccc2n1)C1CCCCCC1` (stereo partly drawn) [Compound 3, N-((1 S)-cycloheptyl(6-((2-oxo-5-(trifluoromethyl)piperidin-3-yl)methyl)imidazo[1,2-b]pyridazin-2-yl)methyl)-1-ethyl-1H-pyrazole-5-carboxamide]: the IC50 is under 100 nM.

For `CCn1nccc1C(=O)N[C@H](c1cn2nc(CC3CC(F)(F)CNC3=O)c(C)cc2n1)C1CCC(F)(F)CC1` (single isomer, unassigned) [Compound 77], the IC50 was over 1000 nM.

As to `Cc1n[nH]cc1C(=O)N[C@H](c1cn2nc(CC3C[C@@H](C(F)(F)F)CNC3=O)ccc2n1)C1CCC(F)(F)CC1` (stereo partly drawn) [Compound 135, N-((1S)-(4,4-difluorocyclohexyl)(6-(((5R)-2-oxo-5-(trifluoromethyl)piperidin-3-yl)methyl)imidazo[1,2-b]pyridazin-2-yl)methyl)-3-methyl-1H-pyrazole-4-carboxamide], the IC50 was over 1000 nM.

Consider `CCn1nccc1C(=O)NC(c1cn2ncc(CC3CCC(C(F)(F)F)NC3=O)cc2n1)C1CCC(C)CC1` (single isomer, unassigned) [Compound 213], for which the half-maximal inhibitory concentration (IC50) was over 1000 nM.

For the compound `CCn1nccc1C(=O)N[C@H](c1cn2nc(CC3C[C@H](C(F)(F)F)CNC3=O)ccc2n1)C(C1CC1)C1CC1` (stereo partly drawn) [Compound 153, N-((1S)-2,2-dicyclopropyl-1-(6-(((5S)-2-oxo-5-(trifluoromethyl)piperidin-3-yl)methyl)imidazo[1,2-b]pyridazin-2-yl)ethyl)-1-ethyl-1H-pyrazole-5-carboxamide], the IC50 is 100 to 1000 nM.

With `N#Cc1cc(C(=O)N[C@H](c2cn3nc(CC4C[C@@H](C(F)(F)F)CNC4=O)ccc3n2)C2CCC(F)(F)CC2)cs1` (stereo partly drawn) [Compound 134, 5-cyano-N-((1S)-(4,4-difluorocyclohexyl)(6-(((5R)-2-oxo-5-(trifluoromethyl)piperidin-3-yl)methyl)imidazo[1,2-b]pyridazin-2-yl)methyl)thiophene-3-carboxamide], the IC50 was 100 to 1000 nM.

As for `CCn1nccc1C(=O)NC(c1cn2ncc(CC3CC(F)(F)CNC3=O)cc2n1)C1CCC(C)CC1` (single isomer, unassigned) [Compound 210], the IC50 was over 1000 nM.

In the case of `O=C(N[C@H](c1cn2nc(CC3C[C@@H](C(F)(F)F)CNC3=O)ccc2n1)C1CCC(F)(F)CC1)c1ccnn1C1CC1` (stereo partly drawn) [Compound 137, 1-cyclopropyl-N-((1S)-(4,4-difluorocyclohexyl)(6-(((5R)-2-oxo-5-(trifluoromethyl)piperidin-3-yl)methyl)imidazo[1,2-b]pyridazin-2-yl)methyl)-1H-pyrazole-5-carboxamide], the IC50 lay within 100 to 1000 nM.

Regarding `CC[C@@H](c1ccc(F)cc1)[C@H](NC(=O)c1ccnn1CC)c1cn2ncc(CC3C[C@@H](C(F)(F)F)NC3=O)cc2n1` (single isomer, unassigned) [Compound 217], the IC50 is over 1000 nM.

Turning to `CCn1nccc1C(=O)N[C@H](c1cn2nc(CC3C[C@@H](C(F)(F)F)NC3=O)ccc2n1)C1CCCCCC1` (single isomer, unassigned) [Compound 5], the half-inhibitory concentration (IC50) was under 100 nM.

For the compound `CCn1nccc1C(=O)N[C@H](c1cn2ncc(CC3CCNC3=O)cc2n1)C1CCCCCC1` (stereo partly drawn) [Compound 203, N-((1 S)-cycloheptyl(7-((2-oxopyrrolidin-3-yl)methyl)imidazo[1,2-b]pyridazin-2-yl)methyl)-1-ethyl-1H-pyrazole-5-carboxamide], the IC50 was over 1000 nM.

For `CCn1nccc1C(=O)N[C@H](c1cn2nc(CC3C[C@@H](C(F)(F)F)CNC3=O)c(N(C)CC(F)(F)F)cc2n1)C1CCC(F)(F)CC1` (single isomer, unassigned) [Compound 181], the IC50 was under 100 nM.
